Values joined by “and” are separate entries in the source; they are usually repeats but may differ in a detail not shown here. Identical values can stand only once. Toxic doses and inconclusive results are not listed. How the source made its calls: active means survival T/C of 150% or more; inactive means T/C below 125% in these data.
System: P388 leukemia ip, CD2F1 mice, survival T/C
Experiment: NCI In Vivo Anticancer Drug Screen. Data for tumor model P388 Leukemia (intraperitoneal) in CD2F1 (CDF1) mice
Details: endpoint: median survival time, higher = longer survival
Outline: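 Mice carrying the transplanted tumor received test compound or vehicle. Survival was recorded in each group, and the value is the treated-group measurement divided by that of the vehicle-treated control group.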

[1] = dose: 12.5 mg/kg/injection, schedule: Q01DX009 (ip), vehicle: saline
[2] = dose: 25.0 mg/kg/injection, schedule: Q01DX009 (ip), vehicle: saline
[3] = dose: 50.0 mg/kg/injection, schedule: Q01DX009 (ip), vehicle: saline with Tween-80
[4] = dose: 100.0 mg/kg/injection, schedule: Q01DX009 (ip), vehicle: saline with Tween-80
[5] = dose: 200.0 mg/kg/injection, schedule: Q01DX009 (ip), vehicle: saline with Tween-80
[6] = dose: 400.0 mg/kg/injection, schedule: Q01DX009 (ip), vehicle: saline with Tween-80
[7] = dose: 60.0 mg/kg/injection, schedule: Q01DX005 (ip), vehicle: saline with Tween-80
[8] = dose: 120.0 mg/kg/injection, schedule: Q01DX005 (ip), vehicle: saline with Tween-80
[9] = dose: 240.0 mg/kg/injection, schedule: Q01DX005 (ip), vehicle: saline with Tween-80
[10] = dose: 50.0 mg/kg/injection, schedule: Q01DX009 (ip), vehicle: Klucel (hydroxypropylcellulose) (HPC)
[11] = dose: 100.0 mg/kg/injection, schedule: Q01DX009 (ip), vehicle: Klucel (hydroxypropylcellulose) (HPC)
[12] = dose: 100.0 mg/kg/injection, schedule: Q04DX003 (ip), vehicle: saline with Tween-80
[13] = dose: 200.0 mg/kg/injection, schedule: Q04DX003 (ip), vehicle: saline with Tween-80
[14] = dose: 400.0 mg/kg/injection, schedule: Q04DX003 (ip), vehicle: saline with Tween-80
[15] = dose: 200.0 mg/kg/injection, schedule: Q01DX009 (ip), vehicle: Klucel (hydroxypropylcellulose) (HPC)
[16] = dose: 50.0 mg/kg/injection, schedule: Q01DX005 (ip), vehicle: Klucel (hydroxypropylcellulose) (HPC)
[17] = dose: 100.0 mg/kg/injection, schedule: Q01DX005 (ip), vehicle: Klucel (hydroxypropylcellulose) (HPC)
[18] = dose: 200.0 mg/kg/injection, schedule: Q01DX005 (ip), vehicle: Klucel (hydroxypropylcellulose) (HPC)

Measured: T/C

COc1ccc(NN=O)nc1Br
inactive: dose: 3.12 mg/kg/injection, schedule: Q01DX009 (ip), vehicle: saline 108 % of control | dose: 6.25 mg/kg/injection, schedule: Q01DX009 (ip), vehicle: saline 108 % of control | [1] 108 % of control and 109 % of control | [2] 110 % of control and 120 % of control
active: dose: 100.0 mg/kg/injection, schedule: Q01DX009 (ip), vehicle: saline 157 % of control

O=C1NN(c2ccccc2)C(=O)/C1=C\c1ccccc1O
inactive: dose: 25.0 mg/kg/injection, schedule: Q01DX009 (ip), vehicle: saline with Tween-80 100 % of control and 96 % of control | dose: 43.75 mg/kg/injection, schedule: Q01DX005 (ip), vehicle: Klucel (hydroxypropylcellulose) (HPC) 104 % of control | dose: 43.75 mg/kg/injection, schedule: Q01DX009 (ip), vehicle: Klucel (hydroxypropylcellulose) (HPC) 95 % of control | [3] 94 % of control and 98 % of control | dose: 87.5 mg/kg/injection, schedule: Q01DX005 (ip), vehicle: Klucel (hydroxypropylcellulose) (HPC) 97 % of control | [4] 86 % of control and 97 % of control | dose: 175.0 mg/kg/injection, schedule: Q01DX005 (ip), vehicle: Klucel (hydroxypropylcellulose) (HPC) 98 % of control | dose: 175.0 mg/kg/injection, schedule: Q01DX009 (ip), vehicle: Klucel (hydroxypropylcellulose) (HPC) 102 % of control | [5] 86 % of control and 96 % of control | dose: 350.0 mg/kg/injection, schedule: Q01DX005 (ip), vehicle: Klucel (hydroxypropylcellulose) (HPC) 92 % of control | dose: 350.0 mg/kg/injection, schedule: Q01DX009 (ip), vehicle: Klucel (hydroxypropylcellulose) (HPC) 109 % of control | [6] 111 % of control

O=C1CCC(=O)N(CNc2cccc(Cc3cccc(NCN4CC(=O)CCC4=O)c3)c2)C1
inactive: [7] 91 % of control | [8] 91 % of control | [9] 89 % of control

[Cl][Sn]1([Cl])[CH2]CC[CH2][Sn]([Cl])([Cl])[CH2]CC[CH2][Sn]([Cl])([Cl])[CH2]CC[CH2][Sn]([Cl])([Cl])[CH2]CC[CH2]1
inactive: dose: 50.0 mg/kg/injection, schedule: Q01DX005 (ip), vehicle: saline 93 % of control | dose: 100.0 mg/kg/injection, schedule: Q01DX005 (ip), vehicle: saline 92 % of control | dose: 200.0 mg/kg/injection, schedule: Q01DX005 (ip), vehicle: saline 102 % of control

CCCC(NC)C(CC)CN (stereo not given)
inactive: [3] 95 % of control | [4] 100 % of control

CCCCCCCCCCCCCCCCCCOP(=O)([O-])OCC[N+](C)(C)C
inactive: [1] 98 % of control | [2] 107 % of control

COc1ccc(NS(=O)(=O)c2ccc(N=Cc3c4ccccc4nc4cc(Cl)ccc34)cc2)nn1
inactive: [7] 91 % of control | [8] 90 % of control | [9] 87 % of control

O=C1SC(Nc2ccc(Br)cc2)/C(=N\N=C2/C(Nc3ccc(Br)cc3)SC(=O)N2Cc2ccccc2)N1Cc1ccccc1 (stereo not given)
inactive: dose: 100.0 mg/kg/injection, schedule: Q04DX002 (ip), vehicle: Klucel (hydroxypropylcellulose) (HPC) 97 % of control | dose: 200.0 mg/kg/injection, schedule: Q04DX002 (ip), vehicle: Klucel (hydroxypropylcellulose) (HPC) 91 % of control | dose: 400.0 mg/kg/injection, schedule: Q04DX002 (ip), vehicle: Klucel (hydroxypropylcellulose) (HPC) 91 % of control

O=[n+]1c2c(n([O-])c3ccccc31)C(Br)CCCC2Br (stereo not given)
inactive: [7] 100 % of control | [8] 95 % of control | [9] 89 % of control

Cc1ccc(Cl)cc1NC(=O)Nc1nccs1
inactive: dose: 25.0 mg/kg/injection, schedule: Q01DX009 (ip), vehicle: Klucel (hydroxypropylcellulose) (HPC) 93 % of control | [10] 92 % of control | [11] 109 % of control

Oc1ccc2ccccc2c1N=Nc1ccc(Cl)cc1
inactive: [12] 100 % of control | [13] 100 % of control | [14] 90 % of control

CC(C)CC(N)C(=O)O (stereo not given)
inactive: [10] 105 % of control | [11] 105 % of control | [15] 94 % of control

COC(=O)C(CSSCC(C(=O)NC(Cc1ccccc1)C(=O)NCC(=O)OC(C)(C)C)N1C(=O)CCC1=O)NC(=O)OCc1ccccc1 (stereo not given)
inactive: [16] 103 % of control | [17] 93 % of control | [18] 96 % of control

Clc1cccc2c(SCCCCCSc3c4ccccc4nc4c(Cl)cccc34)c3ccccc3nc12
inactive: dose: 60.0 mg/kg/injection, schedule: Q01DX005 (ip), vehicle: Klucel (hydroxypropylcellulose) (HPC) 93 % of control | dose: 120.0 mg/kg/injection, schedule: Q01DX005 (ip), vehicle: Klucel (hydroxypropylcellulose) (HPC) 93 % of control | dose: 240.0 mg/kg/injection, schedule: Q01DX005 (ip), vehicle: Klucel (hydroxypropylcellulose) (HPC) 87 % of control

CCC1C(c2c[nH]c3ccccc23)N(C=O)CCC1(O)C(C)=O (stereo not given)
inactive: dose: 4.38 mg/kg/injection, schedule: Q01DX005 (ip), vehicle: Klucel (hydroxypropylcellulose) (HPC) 99 % of control | dose: 8.75 mg/kg/injection, schedule: Q01DX005 (ip), vehicle: Klucel (hydroxypropylcellulose) (HPC) 99 % of control | dose: 17.5 mg/kg/injection, schedule: Q01DX005 (ip), vehicle: Klucel (hydroxypropylcellulose) (HPC) 96 % of control

C[n+]1c2ccccc2cc2ccccc21
inactive: dose: 25.0 mg/kg/injection, schedule: Q04DX003 (ip), vehicle: saline with Tween-80 86 % of control

NC(=O)C(F)C(N)C(=O)O (stereo not given)
inactive: dose: 12.5 mg/kg/injection, schedule: Q01DX009 (ip), vehicle: suspension in saline 100 % of control | dose: 25.0 mg/kg/injection, schedule: Q01DX009 (ip), vehicle: suspension in saline 103 % of control | dose: 50.0 mg/kg/injection, schedule: Q01DX009 (ip), vehicle: suspension in saline 97 % of control

CC(=O)OC1CC2C(C)(C)C(=O)C=CC2(C)C2CCC3(C)C(c4ccoc4)OC(=O)C4OC43C12C (stereo not given)
inactive: [4] 90 % of control | [12] 109 % of control | [5] 95 % of control | [13] 100 % of control | [6] 100 % of control | [14] 90 % of control

CCn1nc(C(=O)O)c(=O)c2cc3c(cc21)OCO3
inactive: [10] 96 % of control | [11] 97 % of control | [15] 98 % of control

CCC(/C=C/c1ccccc1)=N\Nc1ccc(Cl)cc1
inactive: [7] 104 % of control | [8] 101 % of control | [9] 98 % of control

Cc1ccc(C2(O)c3ccccc3N=NN2C)cc1 (stereo not given)
inactive: dose: 50.0 mg/kg/injection, schedule: Q01DX005 (ip), vehicle: saline with Tween-80 100 % of control | dose: 100.0 mg/kg/injection, schedule: Q01DX005 (ip), vehicle: saline with Tween-80 100 % of control | dose: 200.0 mg/kg/injection, schedule: Q01DX005 (ip), vehicle: saline with Tween-80 96 % of control

O=S(=O)(Nc1cccc(Cl)c1)c1ccc(F)cc1
inactive: [7] 96 % of control | [8] 99 % of control | [9] 101 % of control

C[N+]1(C)CCC(Cl)CC1
inactive: dose: 3.75 mg/kg/injection, schedule: Q01DX005 (ip), vehicle: saline 104 % of control | dose: 7.5 mg/kg/injection, schedule: Q01DX005 (ip), vehicle: saline 103 % of control | dose: 15.0 mg/kg/injection, schedule: Q01DX005 (ip), vehicle: saline 99 % of control | dose: 30.0 mg/kg/injection, schedule: Q01DX005 (ip), vehicle: saline 100 % of control and 102 % of control

CCOC(=O)c1cc(OC(C)=O)c2c(ccc3ccccc32)c1C
inactive: [11] 95 % of control | [15] 90 % of control | dose: 400.0 mg/kg/injection, schedule: Q01DX009 (ip), vehicle: Klucel (hydroxypropylcellulose) (HPC) 95 % of control

CCOC(=O)N1Cc2cc3ncccc3nc2C1
inactive: dose: 25.0 mg/kg/injection, schedule: Q01DX005 (ip), vehicle: Klucel (hydroxypropylcellulose) (HPC) 111 % of control | [16] 100 % of control

C(/Oc1ccc(-c2ccccc2)cc1)=C(/c1ccccc1)c1ccccc1-c1ccccc1
inactive: [16] 101 % of control | [17] 99 % of control | [18] 92 % of control

Cc1cc2nc3cc(C)c(N)cc3[n+](-c3ccccc3)c2cc1N
inactive: dose: 6.25 mg/kg/injection, schedule: Q01DX005 (ip), vehicle: Klucel (hydroxypropylcellulose) (HPC) 109 % of control | dose: 12.5 mg/kg/injection, schedule: Q01DX005 (ip), vehicle: Klucel (hydroxypropylcellulose) (HPC) 116 % of control

Reference: PubChem BioAssay AID330 (DTP/NCI, 2004)
